Measurements published in patent EP1268431B1 (Wyeth, priority 2000, dated 2001).
“And” between values parts separate entries of the source, which are not always exact repeats. Identical values can stand only once.

Assays:
[1] = tested on: Human adenocarcinoma cell line LoVo; assay: Cell Based Screen for Inhibitors of Raf Kinase, LoVo cells; settings: four days, SRB
Procedure: (§1) • Cell Lines: Human adenocarcinoma cell line LoVo which is known to be growth inhibited by low nM concentrations of a reference standard inhibitor of Ras and human adenocarcinoma cell line CaCo-2, which is known to be growth resistant to the same reference compound. • Cell Media: RPMI 1640 with 10% Fetal Bovine Serum supplemented with L-glutamine and Pennicilin/Streptomycin. • Compounds: Supplied usually as a 10 mM stock in 100% DMSO. • Normal Saline: 150 mM NaCl • Trichloroacetic Acid (TCA): 50% (w/v) in water • Sulforhodamine B (SRB): 0.4% (w/v) in 1% Acetic Acid • Tris Base: 10 mM in water
(§2) Cells are plated at 2000 cells per well for cell line LoVo and 1500 cells for cell line CaCo-2 in 96 well plates. Cells are plated in media (200 µl) and allowed to adhere overnight at 37° C. At 24 hours post plating, compounds are added directly at a volume of 0.5 µl. For the qualitative screen (compounds screened at 25 µM) compound is added directly to cells. For the quantitative screen, compound is first diluted in DMSO to generate concentrations of compound or reference standard of: 1, 5, 10 and 25 µM. It is advisable to make the dilutions in an identical 96 well plate so that compounds may be added using a multichannel micropipettor set at 0.5 µl. The cells are then incubated for four days after which the media is removed using a 12 well manifold by first tipping the plate forward at a 45 degree angle and then inserting the manifold in an upright orientation to prevent the tips of the manifold from disturbing cells at the bottom of the plate. 200 µl of normal saline is then added to each well using an 8 well multichannel pipettor, followed by the careful addition of 50 µl of 50% TCA. The plates are then incubated for 2 hours at 4 ° C, after which the supernatant is removed using the same technique as above and the plated washed twice with 200 µl water. The plates are then air dried and 50 µl of SRB stock solution is carefully added so that the entire bottom of each well is covered. This again may be used using an 8 well multichannel pipettor. The SRB is incubated with fixed cells for 15 minutes at room temperature after which the SRB is removed with the manifold as described above and the plates washed twice with 350 µl of 1% acetic acid per well each time.The plates are then air dried after which the bound SRB is released from protein by the addition of 200 µl of Tris base. Resolubilizing the SRB is aided by placing the plates on a rotator for 15-30 minutes. The absorbance of each well is determined at 550 or 562 nm using a microtiter plate reader.
(§3) Each compound or dilution thereof is performed in triplicate. Outliers are identified by visual inspection of the data. Each plate should have a "0" control (vehicle only).
(§4) Quantitative Assay: A standard curve is constructed by plotting the concentration of compound against the average absorbance calculated at that concentration. A curve is plotted and the concentration at which the curve passes through the 50% the absorbance mark seen in the "0" control well is the IC50 calculated for that compound. […]

[2] = tested on: human adenocarcinoma cell line CaCo-2; assay: Cell Based Screen for Inhibitors of Raf Kinase, CaCo-2 cells; settings: CaCo-2, four days, SRB
Procedure: as §1, §2, §3, §4

Row | SMILES | IC50 ([1]; Homo sapiens, 96 h) [µM] | IC50 ([2]; Homo sapiens, Caco-2, 96 h) [µM] | IC50 [1] | IC50 [2] [µM]
1 | Cn1ccnc1Sc1ccc(Nc2c(C#N)cnc3cc(-c4ccc(CN5CCOCC5)cn4)ccc23)cc1Cl [Example 187, 4-{3-chloro-4-[(1-methyl-1H-imidazol-2-yl)sulfanyl]anilino}-7-[5-(4-morpholinylmethyl)-2-pyridinyl]-3-quinolinecarbonitrile] |  | > 10 | 0.009 µM | 5.5
2 | N#Cc1cnc2cc(-c3ccc(CN4CCOCC4)c(CN4CCOCC4)c3)ccc2c1Nc1ccc(OCc2ccccc2)c(Cl)c1 [Example 132, 4-[4-(benzyloxy)-3-chloroanilino]-7-[3,4-bis(4-morpholinylmethyl)phenyl]-3-quinolinecarbonitrile] | 0.43 | 7 |  | 
3 | CC(C)N1CCN(Cc2ccc(-c3ccc4c(Nc5ccc(Sc6nccn6C)c(Cl)c5)c(C#N)cnc4c3)cc2)CC1 [Example 98, 4-({3-Chloro-4-[(1-methyl-1H-imidazol-2-yl)sulfanyl]phenyl}amino)-7-{4-[(4-isopropyl-1-piperazinyl)methyl]phenyl}-3-quinolinecarbonitrile] | 0.0071 | 0.64 |  | 
4 | COc1cc2c(Nc3ccc(Sc4nccn4C)c(Cl)c3)c(C#N)cnc2cc1-c1ccc(CN2CCOCC2)cc1 [Example 123, 4-{3-Chloro-4-[(1-methyl-1H-imidazol-2-yl)sulfanyl]anilino}-6-methoxy-7-[4-(4-morpholinylmethyl)phenyl]-3-quinolinecarbonitrile] | 0.04 | 1.5 |  | 
5 | CCN1CCN(Cc2ccc(-c3ccc4c(Nc5ccc(Sc6nccn6C)c(Cl)c5)c(C#N)cnc4c3)cn2)CC1 [Example 220, 4-({3-chloro-4-[(1-methyl-1H-imidazol-2-yl)sulfanyl]phenyl}amino)-7-{6-[(4-ethyl-1-piperazinyl)methyl]-3-pyridinyl}-3-quinolinecarbonitrile] | 0.0077 | > 1 |  | 
6 | N#Cc1cnc2cc(-c3cc(CN4CCOCC4)c(CN4CCOCC4)s3)ccc2c1Nc1ccc(Oc2ccccc2)cc1 [Example 168, 7-[4,5-bis(4-morpholinylmethyl)-2-thienyl]-4-(4-phenoxyanilino)-3-quinolinecarbonitrile] | 2 | 4.6 |  | 
7 | Cn1ccnc1Sc1ccc(Nc2c(C#N)cnc3cc(-c4ccc(CN5CCOCC5)cc4)ccc23)cc1Cl [Example 63, 4-{3-Chloro-4-[(1-methyl-1H-imidazol-2-yl)sulfanyl]anilino}-7-[4-(4-morpholinylmethyl)phenyl]-3-quinolinecarbonitrile] | 3.8 | 2.2 |  | 
8 | CCOC(=O)C1CCN(c2ccc(-c3ccc4c(Nc5ccc(Sc6nccn6C)c(Cl)c5)c(C#N)cnc4c3)cn2)CC1 [Example 213, ethyl 1-{5-[4-({3-chloro-4-[(1-methyl-1H-imidazol-2-yl)sulfanyl]phenyl}amino)-3-cyano-7-quinolinyl]-2-pyridinyl}-4-piperidinecarboxylate] | 0.0452 | > 1 |  | 
9 | Cn1ccnc1Sc1ccc(Nc2c(C#N)cnc3cc(-c4ccc(N5CCC(N6CCCC6)CC5)nc4)ccc23)cc1Cl [Example 210, 4-({3-chloro-4-[(1-methyl-1H-imidazol-2-yl)sulfanyl]phenyl}amino)-7-{6-[4-(1-pyrrolidinyl)-1-piperidinyl]-3-pyridinyl}-3-quinolinecarbonitrile] | 0.0032 | 0.59 |  | 

Now from value to compound:

Row | IC50 ([1]; Homo sapiens, 96 h) [µM] | IC50 ([2]; Homo sapiens, Caco-2, 96 h) [µM] | IC50 [1] | IC50 [2] [µM] | SMILES
10 | 0.0068 | 0.98 |  |  | Cn1ccnc1Sc1ccc(Nc2c(C#N)cnc3cc(-c4ccc(CN5CCOCC5)nc4)ccc23)cc1Cl [Example 109, 4-({3-Chloro-4-[(1-methyl-1H-imidazol-2-yl)sulfanyl]phenyl}amino)-7-[6-(4-morpholinylmethyl)-3-pyridinyl]-3-quinolinecarbonitrile]
11 | 0.02 | 1.9 | 0.015 µM | 2.8 | COc1cc2c(Nc3ccc(Sc4nccn4C)c(Cl)c3)c(C#N)cnc2cc1-c1csc(CN2CCOCC2)c1 [Example 125, 4-{3-Chloro-4-[(1-methyl-1H-imidazol-2-yl)sulfanyl]anilino}-6-methoxy-7-[5-(4-morpholinylmethyl)-3-thienyl]-3-quinolinecarbonitrile]
12 | 0.042 | > 1 |  |  | Cn1ccnc1Sc1ccc(Nc2c(C#N)cnc3cc(-c4ccc(C(=O)N5CCOCC5)cc4)ccc23)cc1Cl [Example 129, 4-({3-Chloro-4-[(1-methyl-1H-imidazol-2-yl)sulfanyl]phenyl}amino)-7-[4-(4-morpholinylcarbonyl)phenyl]-3-quinolinecarbonitrile]
13 | 0.074 | > 1 |  |  | CN1CCN(Cc2ccc(-c3ccc4c(Nc5ccc(Sc6nccn6C)c(Cl)c5)c(C#N)cnc4c3)cn2)CC1 [Example 221, 4-({3-chloro-4-[(1-methyl-1H-imidazol-2-yl)sulfanyl]phenyl}amino)-7-{6-[(4-methyl-1-piperazinyl)methyl]-3-pyridinyl}-3-quinolinecarbonitrile]
14 | 0.29 | 1 | 0.44 µM and 0.31 µM | 0.6 | N#Cc1cnc2cc(-c3ccc(CN4CCOCC4)cn3)ccc2c1Nc1ccc(Oc2ccccc2)cc1 [Example 56, 7-[5-(4-Morpholinylmethyl)-2-pyridinyl]-4-(4-phenoxyanilino)-3-quinolinecarbonitrile]
15 | 0.0065 | > 1 |  |  | CN1CCN(Cc2cccc(-c3ccc4c(Nc5ccc(Sc6nccn6C)c(Cl)c5)c(C#N)cnc4c3)n2)CC1 [Example 202, 4-{3-chloro-4-[(1-methyl-1H-imidazol-2-yl)sulfanyl]anilino}-7-{6-[(4-methyl-1-piperazinyl)methyl]-2-pyridinyl}-3-quinolinecarbonitrile]
16 | 0.004 | 0.78 |  |  | COCCN(C)c1ccc(-c2ccc3c(Nc4ccc(Sc5nccn5C)c(Cl)c4)c(C#N)cnc3c2)cn1 [Example 212, 4-({3-chloro-4-[(1-methyl-1H-imidazol-2-yl)sulfanyl]phenyl}amino)-7-{6-[(2-methoxyethyl)(methyl)amino]-3-pyridinyl}-3-quinolinecarbonitrile]
17 | 0.01 | > 1 |  |  | Cn1ccnc1Sc1ccc(Nc2c(C#N)cnc3cc(-c4ccc(N5CCSCC5)nc4)ccc23)cc1Cl [Example 110, 4-({3-Chloro-4-[(1-methyl-1H-imidazol-2-yl)sulfanyl]phenyl}amino)-7-[6-(4-thiomorpholinyl)-3-pyridinyl]-3-quinolinecarbonitrile]
18 | 0.075 | > 1 |  |  | COc1cc2c(Nc3ccc(Sc4nccn4C)c(Cl)c3)c(C#N)cnc2cc1-c1csc(CN2CCN(C)CC2)c1 [Example 126, 4-{3-Chloro-4-[(1-methyl-1H-imidazol-2-yl)sulfanyl]anilino}-6-methoxy-7-{5-[(4-methyl-1-piperazinyl)methyl]-3-thienyl}-3-quinolinecarbonitrile]
19 | 0.33 | > 1 |  |  | Cn1ccnc1Sc1ccc(Nc2c(C#N)cnc3cc(-c4ccc(CN5CCC(C(=O)O)CC5)cn4)ccc23)cc1Cl [Example 175, 1-{[6-(4-{3-chloro-4-[(1-methyl-1H-imidazol-2-yl)sulfanyl]anilino}-3-cyano-7-quinolinyl)-3-pyridinyl]methyl}-4-piperidinecarboxylic acid]
20 | 0.0068 | > 1 |  |  | Cn1ccnc1Sc1ccc(Nc2c(C#N)cnc3cc(-c4ccc(CN5CCOCC5)o4)ccc23)cc1Cl [Example 154, 4-{3-chloro-4-[(1-methyl-1H-imidazol-2-yl)sulfanyl]anilino}-7-[5-(4-morpholinylmethyl)-2-furyl]-3-quinolinecarbonitrile]
21 | 0.0042 | 0.71 |  |  | Cn1ccnc1Sc1ccc(Nc2c(C#N)cnc3cc(-c4ccc(CN5CCC(O)CC5)s4)ccc23)cc1Cl [Example 159, 4-{3-chloro-4-[(1-methyl-1H-imidazol-2-yl)sulfanyl]anilino}-7-{5-[(4-hydroxy-1-piperidinyl)methyl]-2-thienyl}-3-quinolinecarbonitrile]
22 | 0.0056 | > 1 |  |  | Cn1ccnc1Sc1ccc(Nc2c(C#N)cnc3cc(-c4ccc(CN5CCN(CCO)CC5)s4)ccc23)cc1Cl [Example 161, 4-{3-chloro-4-[(1-methyl-1H-imidazol-2-yl)sulfanyl]anilino}-7-(5-{[4-(2-hydroxyethyl)-1-piperazinyl]methyl}-2-thienyl)-3-quinolinecarbonitrile]
